In ChEMBL document CHEMBL1142398, “Chemical stability of the peroxide bond enables diversified synthesis of potent tetraoxane antimalarials” (J Med Chem, 2008):

Tests used:
Plasmodium falciparum [1] = test: microbe, parasite or virus in culture; details: W2
Description: Antimalarial activity against Plasmodium falciparum W2

Plasmodium falciparum [2] = test: microbe, parasite or virus in culture; details: D6
Description: Antimalarial activity against Plasmodium falciparum D6

[3] = Metabolic stability assessed as half life in human liver microsomes; format: ADME, Microsome
Plasmodium falciparum [4] = test: microbe, parasite or virus in culture; details: TM91C235
Description: Antimalarial activity against multidrug-resistant Plasmodium falciparum TM91C235

[5] = Metabolic stability assessed as half life in mouse liver microsomes; format: ADME, Microsome
Plasmodium berghei [6] = test: Antimalarial activity against Plasmodium berghei KBG173 infected CD1 mice (Mus musculus) on subcutaneous dose after 3-5 days; format: functional
Plasmodium berghei [7] = test: Antimalarial activity against Plasmodium berghei KBG173 infected CD1 mice (Mus musculus) at 150 mg/kg/day subcutaneous dose as survival time after 3-5 days; format: functional
Plasmodium berghei [8] = test: Antimalarial activity against Plasmodium berghei KBG173 infected CD1 mice (Mus musculus) at 37.5 mg/kg/day subcutaneous dose as survival time after 3-5 days; format: functional
Plasmodium berghei [9] = test: Antimalarial activity against Plasmodium berghei KBG173 infected CD1 mice (Mus musculus) at 9.3 mg/kg/day subcutaneous dose as survival time after 3-5 days; format: functional
Plasmodium berghei [10] = test: Antimalarial activity against Plasmodium berghei KBG173 infected CD1 mice (Mus musculus) at 300 mg/kg/day subcutaneous dose as survival time after 3-5 days; format: functional

| Compound | IC50 (Plasmodium falciparum [1]) [nM] | IC50 (Plasmodium falciparum [2]) [nM] | half-life [3] [min] | IC90 (Plasmodium falciparum [1]) [nM] | IC50 (Plasmodium falciparum [4]) [nM] | IC90 (Plasmodium falciparum [4]) [nM] | IC90 (Plasmodium falciparum [2]) [nM] | half-life [5] [min] | MCD (Plasmodium berghei [6]) | Survival (Plasmodium berghei [7]) [days] | Survival (Plasmodium berghei [8]) [days] | Survival (Plasmodium berghei [9]) [days] | Survival (Plasmodium berghei [10]) [days] |
| --- | --- | --- | --- | --- | --- | --- | --- | --- | --- | --- | --- | --- | --- |
| CC(=O)O[C@H]1C[C@H]2[C@@H]([C@H](OC(C)=O)C[C@@H]3CC4(CC[C@@]32C)OOC2(CCCCC2)OO4)[C@@H]2CC[C@H]([C@H](C)CCC(=O)O)[C@@]12C | 19.2 | 30.6 | – | – | – | – | – | – | – | – | – | – | – |
| CC(=O)O[C@H]1C[C@H]2[C@@H]([C@H](OC(C)=O)C[C@@H]3CC4(CC[C@@]32C)OOC2(CCCCC2)OO4)[C@@H]2CC[C@H]([C@H](C)CCCNCCN(C)C)[C@@]12C | 18.5 | 46.8 | > 60 | 65.4 | 49.7 | 88.1 | 110 | > 60 | – | – | – | – | – |
| CCCNC(=O)C1CCC2(CC1)OOC1(CCCCC1)OO2 | 22 | 19.3 | – | 44.5 | 25.3 | 53.9 | 49.2 | – | – | – | – | – | – |
| C1CCC(NCC2CCC3(CC2)OOC2(CCCCC2)OO3)CC1 | 6.17 | 11.2 | 15.9 | 17.7 | 10.8 | 13.9 | 14 | 43.9 | <=37.5 mg/kg/day | 29 | 22.6 | 13.4 | >31 |
| CC(C)NCC1CCC2(CC1)OOC1(CCCCC1)OO2 | 7.54 | 9.4 | 38.7 | 22.9 | 9.27 | 16.7 | 14.5 | 9.9 | – | 23.6 | 18.2 | 11.8 | 23.2 |
| c1ccc(CNCC2CCC3(CC2)OOC2(CCCCC2)OO3)cc1 | 8.19 | 13.8 | 42 | 20.6 | 13.9 | 39.5 | 34.5 | 3.5 | – | – | – | – | – |
| OCC1CCC2(CC1)OOC1(CCCCC1)OO2 | 6.54 | 15.2 | – | 11.6 | 12.6 | 23.7 | 22.5 | – | – | – | – | – | – |
| CCCNCCC[C@@H](C)[C@H]1CC[C@H]2[C@@H]3[C@H](OC(C)=O)C[C@@H]4CC5(CC[C@]4(C)[C@H]3C[C@H](OC(C)=O)[C@]12C)OOC1(CCCCC1)OO5 | 11.1 | 24.1 | > 60 | 26.9 | 20.8 | 73.9 | 49.3 | > 60 | – | – | – | – | – |
| NCC1CCC2(CC1)OOC1(CCCCC1)OO2 | 7.79 | 12.8 | – | 16 | 19.8 | 29 | 24.1 | – | <=37.5 mg/kg/day | >31 | 24.6 | 16.6 | >31 |
| CC(=O)O[C@H]1C[C@H]2[C@@H]([C@H](OC(C)=O)C[C@@H]3CC4(CC[C@@]32C)OOC2(CCCCC2)OO4)[C@@H]2CC[C@H]([C@H](C)CCCO)[C@@]12C | 9.77 | 15.6 | – | 24.2 | 18.1 | 27.2 | 28.7 | – | – | – | – | – | – |
